Data: ChEMBL document CHEMBL3044789, “Comparing weed and crop seedling response to pre-emergence pendimethalin application in Corchorus olitorius and Abelmoschus esculentus” (Crop Prot, 2006)

Assays:
Asteraceae = test: Herbicidal activity against Aspilia africana in Corchorus olitorius plots assessed as weed cover at 0.66 kg a.i/ha after 2 weeks (reference value: 81.7 +/- 0.43 %); type: functional
Corchorus olitorius [1] = test: Phytotoxicity in Corchorus olitorius assessed as shoot length at 1.32 kg a.i/ha treated to soil after 7 weeks (reference value: 23.7 +/- 0.10 mm); type: organism-based; settings: in vivo, other, 1176 h
Euphorbia heterophylla [2] = test: Herbicidal activity against Euphorbia heterophylla in Abelmoschus esculentus plots assessed as weed recovery at 1.32 kg a.i/ha after 2 weeks (reference value: 60.1 +/- 0.46 %); type: functional
Abelmoschus esculentus [3] = test: Phytotoxicity in Abelmoschus esculentus assessed as seedling injury at 0.33 kg a.i/ha applied as solution after 7 weeks relative to control; type: organism-based; settings: in vivo, other, 1176 h
Corchorus olitorius [4] = test: Phytotoxicity in Corchorus olitorius assessed as seedling emergence at 0.99 kg a.i/ha treated to soil after 7 weeks (reference value: 95 +/- 0.05 %); type: organism-based; settings: in vivo, other, 1176 h
Calopogonium mucunoides [5] = test: Herbicidal activity against Calopogonium mucunoides in Corchorus olitorius plots assessed as weed recovery at 0.99 kg a.i/ha after 2 weeks (reference value: 78.3 +/- 0.74 %); type: functional
Calopogonium mucunoides [6] = test: Herbicidal activity against Calopogonium mucunoides in Abelmoschus esculentus plots assessed as weed cover at 0.99 kg a.i/ha after 2 weeks (reference value: 63.5 +/- 0.29 %); type: functional
Calopogonium mucunoides [7] = test: Herbicidal activity against Calopogonium mucunoides in Corchorus olitorius plots assessed as weed recovery at 1.32 kg a.i/ha after 2 weeks (reference value: 78.3 +/- 0.74 %); type: functional
Ageratum conyzoides [8] = test: Herbicidal activity against Ageratum conyzoides in Abelmoschus esculentus plots assessed as weed cover at 0.33 kg a.i/ha after 2 weeks (reference value: 63.5 +/- 0.29 %); type: functional
Corchorus olitorius [9] = test: Phytotoxicity in Corchorus olitorius assessed as root length at 1.32 kg a.i/ha treated to soil after 7 weeks (reference value: 16.9 +/- 0.09 mm); type: organism-based; settings: in vivo, other, 1176 h
Synedrella nodiflora [10] = test: Herbicidal activity against Synedrella nodiflora in Corchorus olitorius plots assessed as minor weed growth at 0.66 kg a.i/ha after 2 weeks; type: functional
Talinum fruticosum [11] = test: Herbicidal activity against Talinum fruticosum in Abelmoschus esculentus plots assessed as weed cover at 0.99 kg a.i/ha after 4 weeks (reference value: 22.6 +/- 0.49 %); type: functional
Synedrella nodiflora [12] = test: Herbicidal activity against Synedrella nodiflora in Corchorus olitorius plots assessed as weed cover at 0.66 kg a.i/ha after 2 weeks (reference value: 81.7 +/- 0.43 %); type: functional
Abelmoschus esculentus [13] = test: Phytotoxicity in Abelmoschus esculentus assessed as seedling emergence at 0.99 kg a.i/ha treated to soil after 7 weeks (reference value: 95 +/- 0.05 %); type: organism-based; settings: in vivo, other, 1176 h
Synedrella nodiflora [14] = test: Herbicidal activity against Synedrella nodiflora in Corchorus olitorius plots assessed as weed recovery at 0.99 kg a.i/ha after 2 weeks (reference value: 78.3 +/- 0.74 %); type: functional
Synedrella nodiflora [15] = test: Herbicidal activity against Synedrella nodiflora in Corchorus olitorius plots assessed as weed recovery at 1.32 kg a.i/ha after 2 weeks (reference value: 78.3 +/- 0.74 %); type: functional
Talinum fruticosum [16] = test: Herbicidal activity against Talinum fruticosum in Corchorus olitorius plots assessed as weed cover at 0.99 kg a.i/ha after 7 weeks (reference value: 1.7 +/- 0.56 %); type: functional
Chromolaena odorata = test: Herbicidal activity against Chromolaena odorata in Corchorus olitorius plots assessed as minor weed growth at 1.32 kg a.i/ha after 2 weeks; type: functional
Euphorbia heterophylla [17] = test: Herbicidal activity against Euphorbia heterophylla in Corchorus olitorius plots assessed as weed cover at 0.33 kg a.i/ha after 7 weeks (reference value: 1.7 +/- 0.56 %); type: functional
Synedrella nodiflora [18] = test: Herbicidal activity against Synedrella nodiflora in Abelmoschus esculentus plots assessed as weed cover at 0.99 kg a.i/ha after 7 weeks (reference value: 14.7 +/- 0.46 %); type: functional
Mimosa pudica = test: Herbicidal activity against Mimosa pudica in Abelmoschus esculentus plots assessed as minor weed growth at 0.33 kg a.i/ha after 2 weeks; type: functional
Ageratum conyzoides [19] = test: Herbicidal activity against Ageratum conyzoides in Abelmoschus esculentus plots assessed as weed cover at 1.32 kg a.i/ha after 2 weeks (reference value: 63.5 +/- 0.29 %); type: functional
Corchorus olitorius [20] = test: Phytotoxicity in Corchorus olitorius assessed as shoot length at 0.99 kg a.i/ha treated to soil after 7 weeks (reference value: 23.7 +/- 0.10 mm); type: organism-based; settings: in vivo, other, 1176 h
Synedrella nodiflora [21] = test: Herbicidal activity against Synedrella nodiflora in Abelmoschus esculentus plots assessed as weed cover at 0.33 kg a.i/ha after 2 weeks (reference value: 63.5 +/- 0.29 %); type: functional
Ageratum conyzoides [22] = test: Herbicidal activity against Ageratum conyzoides in Corchorus olitorius plots assessed as minor weed growth at 1.32 kg a.i/ha after 2 weeks; type: functional
Calopogonium mucunoides [23] = test: Herbicidal activity against Calopogonium mucunoides in Corchorus olitorius plots assessed as major weed growth at 1.32 kg a.i/ha after 2 weeks; type: functional
Commelina diffusa = test: Herbicidal activity against Commelina diffusa in Abelmoschus esculentus plots assessed as weed recovery at 0.66 kg a.i/ha after 2 weeks (reference value: 60.1 +/- 0.46 %); type: functional
Euphorbia heterophylla [24] = test: Herbicidal activity against Euphorbia heterophylla in Corchorus olitorius plots assessed as weed recovery at 1.32 kg a.i/ha after 2 weeks (reference value: 78.3 +/- 0.74 %); type: functional
Calopogonium mucunoides [25] = test: Herbicidal activity against Calopogonium mucunoides in Abelmoschus esculentus plots assessed as weed cover at 0.99 kg a.i/ha after 4 weeks (reference value: 22.6 +/- 0.49 %); type: functional
Euphorbia heterophylla [26] = test: Herbicidal activity against Euphorbia heterophylla in Corchorus olitorius plots assessed as weed recovery at 0.66 kg a.i/ha after 2 weeks (reference value: 78.3 +/- 0.74 %); type: functional
Corchorus olitorius [27] = test: Phytotoxicity in Corchorus olitorius assessed as shoot length at 0.66 kg a.i/ha treated to soil after 7 weeks (reference value: 23.7 +/- 0.10 mm); type: organism-based; settings: in vivo, other, 1176 h
Euphorbia heterophylla [28] = test: Herbicidal activity against Euphorbia heterophylla in Corchorus olitorius plots assessed as major weed growth at 0.99 kg a.i/ha after 2 weeks; type: functional
Synedrella nodiflora [29] = test: Herbicidal activity against Synedrella nodiflora in Abelmoschus esculentus plots assessed as weed cover at 0.66 kg a.i/ha after 7 weeks (reference value: 14.7 +/- 0.46 %); type: functional
Ageratum conyzoides [30] = test: Herbicidal activity against Ageratum conyzoides in Abelmoschus esculentus plots assessed as weed recovery at 1.32 kg a.i/ha after 2 weeks (reference value: 60.1 +/- 0.46 %); type: functional
Synedrella nodiflora [31] = test: Herbicidal activity against Synedrella nodiflora form in Abelmoschus esculentus plots assessed as minor weed growth at 0.66 kg a.i/ha after 2 weeks; type: functional
Euphorbia heterophylla [32] = test: Herbicidal activity against Euphorbia heterophylla in Corchorus olitorius plots assessed as weed cover at 1.32 kg a.i/ha after 2 weeks (reference value: 81.7 +/- 0.43 %); type: functional
Abelmoschus esculentus [33] = test: Phytotoxicity in Abelmoschus esculentus assessed as root length at 0.33 kg a.i/ha treated to soil after 7 weeks (reference value: 2.9 +/- 0.45 mm); type: organism-based; settings: in vivo, other, 1176 h

Question: `CCC(CC)Nc1c([N+](=O)[O-])cc(C)c(C)c1[N+](=O)[O-]` [PENDIMETHALIN] was tested. Which Activity (Asteraceae) did it give?
Answer: 51.7%

Question: What about the Activity (Corchorus olitorius [1]) of the same compound?
Answer: 19.4 mm

Question: And the Activity (Euphorbia heterophylla [2])?
Answer: 33.2%

Question: What about the Activity (Abelmoschus esculentus [3]) of the same compound?
Answer: 29.9%

Question: What about the Activity (Corchorus olitorius [4]) of the same compound?
Answer: 86.7%

Question: And the Activity (Calopogonium mucunoides [5])?
Answer: 21.7%

Question: And the Activity (Calopogonium mucunoides [6])?
Answer: 47.9%

Question: What about the Activity (Calopogonium mucunoides [7]) of the same compound?
Answer: 13.3%

Question: And the Activity (Ageratum conyzoides [8])?
Answer: 56.8%

Question: What about the Activity (Corchorus olitorius [9]) of the same compound?
Answer: 14.7 mm

Question: What about the Activity (Synedrella nodiflora [10]) of the same compound?
Answer: 1 /m2

Question: And the Activity (Talinum fruticosum [11])?
Answer: 39.2%

Question: What about the Activity (Synedrella nodiflora [12]) of the same compound?
Answer: 51.7%

Question: What about the Activity (Abelmoschus esculentus [13]) of the same compound?
Answer: 85%

Question: What about the Activity (Synedrella nodiflora [14]) of the same compound?
Answer: 21.7%

Question: And the Activity (Synedrella nodiflora [15])?
Answer: 13.3%

Question: And the Activity (Talinum fruticosum [16])?
Answer: 95%

Question: And the Activity (Chromolaena odorata)?
Answer: 1 /m2

Question: What about the Activity (Euphorbia heterophylla [17]) of the same compound?
Answer: 100%

Question: And the Activity (Synedrella nodiflora [18])?
Answer: 83.9%

Question: What about the Activity (Mimosa pudica) of the same compound?
Answer: 1 /m2

Question: And the Activity (Ageratum conyzoides [19])?
Answer: 45%

Question: And the Activity (Corchorus olitorius [20])?
Answer: 22.5 mm

Question: What about the Activity (Synedrella nodiflora [21]) of the same compound?
Answer: 56.8%

Question: And the Activity (Ageratum conyzoides [22])?
Answer: 1 /m2

Question: And the Activity (Calopogonium mucunoides [23])?
Answer: 31 /m2

Question: And the Activity (Commelina diffusa)?
Answer: 47.9%

Question: And the Activity (Euphorbia heterophylla [24])?
Answer: 13.3%

Question: What about the Activity (Calopogonium mucunoides [25]) of the same compound?
Answer: 39.2%

Question: And the Activity (Euphorbia heterophylla [26])?
Answer: 33.3%

Question: And the Activity (Corchorus olitorius [27])?
Answer: 20.8 mm

Question: What about the Activity (Euphorbia heterophylla [28]) of the same compound?
Answer: 31 /m2

Question: What about the Activity (Synedrella nodiflora [29]) of the same compound?
Answer: 90%

Question: What about the Activity (Ageratum conyzoides [30]) of the same compound?
Answer: 33.2%

Question: What about the Activity (Synedrella nodiflora [31]) of the same compound?
Answer: 1 /m2

Question: And the Activity (Euphorbia heterophylla [32])?
Answer: 41.7%

Question: What about the Activity (Abelmoschus esculentus [33]) of the same compound?
Answer: 3 mm
